Counter-ions that a name gives are not always drawn. Like-named read-outs stand apart in the source and are kept apart here.
Columns and labels:
[1] = molecular target: T1, α1A (rat submaxillary gland) (Rattus norvegicus, UniProt P43140); test: Radioligand binding with [3H]-prazosin, α1A
T1 construct: α1A (rat submaxillary gland); from tissue; host or cells: rat submaxillary gland
T1 sequence (P43140 1-466): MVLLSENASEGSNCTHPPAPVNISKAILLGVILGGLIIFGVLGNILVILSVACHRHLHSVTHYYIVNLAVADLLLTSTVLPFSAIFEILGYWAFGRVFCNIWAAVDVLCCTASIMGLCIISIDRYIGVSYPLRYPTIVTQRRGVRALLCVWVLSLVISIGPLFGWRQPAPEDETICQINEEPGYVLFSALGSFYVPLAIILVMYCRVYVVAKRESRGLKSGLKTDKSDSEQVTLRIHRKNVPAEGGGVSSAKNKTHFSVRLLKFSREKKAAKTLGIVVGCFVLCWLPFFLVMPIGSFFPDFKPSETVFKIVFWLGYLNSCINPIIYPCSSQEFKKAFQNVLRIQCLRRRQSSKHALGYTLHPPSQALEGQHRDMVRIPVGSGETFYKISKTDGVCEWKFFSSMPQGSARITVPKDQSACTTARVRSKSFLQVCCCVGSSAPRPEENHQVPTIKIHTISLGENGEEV
How it was run: (§1)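 Radioligand binding with [3H]-prazosin: α1A from rat submaxillary gland; α1b hamster receptor and α1d rat receptor, each expressed in mouse fibroblasts.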

[2] = molecular target: T2, α1b (hamster receptor expressed in mouse fibroblasts) (Mesocricetus auratus, UniProt P18841); test: Radioligand binding with [3H]-prazosin, α1b; settings: read-out: Radioligand Binding Ki α1b (Hamster)
T2 construct: expressed in transfected cells; host or cells: mouse fibroblasts
T2 sequence (P18841 1-515): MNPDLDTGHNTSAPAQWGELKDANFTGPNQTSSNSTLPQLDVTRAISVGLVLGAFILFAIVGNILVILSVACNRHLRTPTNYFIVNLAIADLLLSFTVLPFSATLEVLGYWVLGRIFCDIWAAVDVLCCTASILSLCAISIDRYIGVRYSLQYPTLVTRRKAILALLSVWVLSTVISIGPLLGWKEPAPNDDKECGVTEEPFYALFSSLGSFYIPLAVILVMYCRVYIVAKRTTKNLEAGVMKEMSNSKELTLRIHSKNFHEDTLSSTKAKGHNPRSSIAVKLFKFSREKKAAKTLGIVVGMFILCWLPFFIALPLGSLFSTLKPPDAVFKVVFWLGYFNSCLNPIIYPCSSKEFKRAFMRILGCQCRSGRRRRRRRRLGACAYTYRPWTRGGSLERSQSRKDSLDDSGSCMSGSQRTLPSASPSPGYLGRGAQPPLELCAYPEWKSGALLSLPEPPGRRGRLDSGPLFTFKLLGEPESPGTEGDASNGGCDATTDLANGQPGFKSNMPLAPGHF
How it was run: as §1

[3] = molecular target: T3, α1d (rat receptor expressed in mouse fibroblasts) (Rattus norvegicus, UniProt P23944); test: Radioligand binding with [3H]-prazosin, α1d; settings: read-out: Radioligand Binding Ki α1d (Rat)
T3 construct: expressed in transfected cells; host or cells: mouse fibroblasts
T3 sequence (P23944 1-561): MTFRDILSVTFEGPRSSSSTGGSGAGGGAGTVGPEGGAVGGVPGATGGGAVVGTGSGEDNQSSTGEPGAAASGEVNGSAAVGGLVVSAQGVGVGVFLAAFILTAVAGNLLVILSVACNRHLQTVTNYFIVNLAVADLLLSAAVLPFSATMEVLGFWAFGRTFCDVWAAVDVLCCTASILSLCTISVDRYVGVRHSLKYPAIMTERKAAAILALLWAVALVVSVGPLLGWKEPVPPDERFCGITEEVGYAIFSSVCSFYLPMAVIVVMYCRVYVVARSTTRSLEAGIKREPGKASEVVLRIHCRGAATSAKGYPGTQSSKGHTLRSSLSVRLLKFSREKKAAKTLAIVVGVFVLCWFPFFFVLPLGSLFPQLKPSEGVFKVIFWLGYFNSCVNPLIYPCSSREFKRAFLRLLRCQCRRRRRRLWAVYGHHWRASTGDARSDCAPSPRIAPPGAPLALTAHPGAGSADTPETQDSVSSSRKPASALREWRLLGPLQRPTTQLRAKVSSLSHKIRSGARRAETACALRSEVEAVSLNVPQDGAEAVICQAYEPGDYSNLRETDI
How it was run: as §1

[4] = molecular target: T4, α1A (rat epididymal vas deferens) (Rattus norvegicus, UniProt P43140); test: cell-based; settings: rat epididymal vas deferens (values marked *); read-out: Agonist Tissue Response (pD2) α1A, test performed using rat epididymal vas deferens (converted)
T4 sequence (P43140 1-466): T1 sequence (P43140 1-466)

α1B (rat spleen) = molecular target: T5, α1B (rat spleen) (Rattus norvegicus, UniProt P15823); test: Agonist contraction of smooth muscle tissue, rat spleen; type: cell-based; settings: read-out: Agonist Tissue Response (pD2) α1B (rat spleen) (converted)
T5 construct: α1B (rat spleen) and α1D (rat aorta) receptors; from tissue; host or cells: rat spleen
T5 sequence (P15823 1-515): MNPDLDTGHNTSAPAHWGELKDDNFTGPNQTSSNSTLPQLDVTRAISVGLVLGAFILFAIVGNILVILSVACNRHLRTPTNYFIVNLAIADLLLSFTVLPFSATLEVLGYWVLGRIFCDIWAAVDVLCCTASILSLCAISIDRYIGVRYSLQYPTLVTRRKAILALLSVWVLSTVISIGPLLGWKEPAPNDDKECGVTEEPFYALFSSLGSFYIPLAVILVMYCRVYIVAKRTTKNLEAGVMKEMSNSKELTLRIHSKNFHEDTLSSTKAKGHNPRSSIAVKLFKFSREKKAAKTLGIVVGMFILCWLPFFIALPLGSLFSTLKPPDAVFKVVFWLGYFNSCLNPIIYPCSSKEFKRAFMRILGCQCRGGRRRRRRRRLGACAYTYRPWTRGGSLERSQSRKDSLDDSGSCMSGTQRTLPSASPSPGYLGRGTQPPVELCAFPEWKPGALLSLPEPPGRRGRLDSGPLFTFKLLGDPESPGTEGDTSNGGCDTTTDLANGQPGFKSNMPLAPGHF

α1D (rat aorta) = molecular target: T6, α1D (rat aorta) (Rattus norvegicus, UniProt P23944); test: Agonist contraction of smooth muscle tissue, rat aorta; type: cell-based; settings: read-out: Agonist Tissue Response (pD2) α1D (rat aorta) (converted)
T6 construct: α1B (rat spleen) and α1D (rat aorta) receptors; from tissue; host or cells: rat aorta strips, endothelium removed
T6 sequence (P23944 1-561): T3 sequence (P23944 1-561)

Anesthetized Dogs [5] = test: Mean arterial pressure (MAP) in anesthetized dogs; type: in vivo, dog; settings: iv dose causing a maximum increase in MAP of 20 mm Hg, anesthetized female dogs
Excerpt: In vivo Functional Assays-Assessment of Intrurethral Pressure (IUP) and Mean Arterial Pressure (MAP) in Anesthetized Dogs
Female dogs (Marshall Farms, North Rose, N.Y.) greater that 2 years of age and weighing between 12 and 15 kg were used in these studies. At least 2 weeks prior to any agonist dosing, dogs were instrumented for the chronic measurement of arterial blood pressure by implanting a telemetry transducer/transmitter (TA11PA-C40, Data Sciences International, St. Paul, Minn.) into a carotid artery.
On the test day, dogs fasted since the previous afternoon were pre-anesthetized with thiopental sodium 15 mg/kg i.v. (Pentothal™, Abbott) and intubated. Anesthesia was maintained by allowing the dog to spontaneously breathe a mixture of isoflurane (2.5 to 3 volume %) and oxygen delivered by a Narkomed Standard anesthesia system (North American Drager, Telford, Pa.). An Abbocath-T™ i.v. catheter (18-G, Abbott) was inserted into the cephalic vein for the administration of agonists. A telemetry receiver (RA1310, DataSciences) was placed under the head of each dog and was interfaced to a computerized data acquisition system (Modular Instruments Inc.(MI2), Malvern, Pa.) which allowed for the continuous calibrated recording of arterial blood pressure which was electronically filtered to determine its mean value (MAP).
Dogs with chronic telemetry implants anesthetized as described above were placed in dorsal recumbency and a balloon catheter was inserted into the urethral orifice and advanced approximately 15 cm until the tip was well inside the bladder. The balloon was then inflated with 1 ml of room air and the catheter slowly withdrawn until resistance (corresponding to the bladder neck) was evident. The balloon was then deflated and the catheter withdrawn an additional 2 cm. The balloon was then reinflated and its catheter port connected to a Gould Statham P23Dd pressure transducer interfaced to a computerized data acquisition system (Modular Instruments, Inc., Malvern, Pa.) for the measurement of intraurethral pressure. Increasing iv doses of test agonists were administered and the maximum effect of each dose on IUP was recorded. The effect of each dose was allowed to return to baseline before the next dose was given.
From the resulting dose response curve, an ED5 value, for the dose causing a maximum increase in IUP of 5 mm Hg, could be estimated. An ED20 value for the dose causing a maximum increase in MAP of 20 mm Hg could also be estimated. A selectivity ratio of MAP ED20 vs. IUP ED5 was calculated.

Anesthetized Dogs [6] = test: Urethral pressure profile in anesthetized dogs; type: in vivo, dog; settings: increasing iv doses, FIG. 1
Excerpt: Assessment of Urethral Pressure Profile in Anesthetized Dogs
Dogs instrumented and anesthetized as decribed above were placed in left lateral recumbency and a dual pressure sensor catheter (SPC-771, Millar Instruments, Houston, Tex.) was inserted into the urethra and advanced into the bladder. The proximal pressure sensor was interfaced to a MI2 computerized data acquisition system for the measurement of lower urinary tract pressures. At a resting intravesical pressure of approximately 5 cm of H2O, urethral pressure was measured from the sensor as the catheter was withdrawn using a modified syringe pump (Model 22, Harvard Apparatus, South Natick, Mass.) at its maximal rate of 0.83 mm/sec. Measurement from the proximal sensor allowed easy reinsertion as the distal 5 cm of the catheter remains in the urethra after the total profile has been obtained. Three resting urethral pressure profiles were obtained at 5 minute intervals before dosing, then a single profile was initiated 30 sec after each increasing iv dose during the time corresponding to the maximum arterial pressure effects of that dose. The increase in arterial pressure seen after each agonist dose was allowed to return to baseline before the next dose was given.

Anesthetized Dogs [7] = test: Intraurethral pressure (IUP) in anesthetized dogs; type: in vivo, dog; settings: Canis lupus familiaris; iv dose causing a maximum increase in IUP of 5 mm Hg, anesthetized female dogs; read-out: Mean IUP ED5

| SMILES | Ki [1] [µM] | Ki [2] [µM] | Ki [3] [µM] | EC50 [4] [µM] | EC50 (α1B (rat spleen)) [µM] | EC50 (α1D (rat aorta)) [µM] | Ki ([1]; rat submaxillary gland, [3H]-prazosin) [µM] | Ki ([2]; hamster receptor expressed in mouse fibroblasts, [3H]-prazosin) [µM] | Ki ([3]; rat receptor expressed in mouse fibroblasts, [3H]-prazosin) [µM] | EC50 (α1B (rat spleen); rat spleen) [µM] | EC50 (α1D (rat aorta); rat aorta, endothelium removed) [µM] | Mean MAP ED20 (Anesthetized Dogs [5]) [nmol/kg] | urethral pressure profile (Anesthetized Dogs [6]) | ED (5 mmHg IUP increase) (Anesthetized Dogs [7]) [µmol/kg] |
| --- | --- | --- | --- | --- | --- | --- | --- | --- | --- | --- | --- | --- | --- | --- |
| COc1ccc2c(c1NS(C)(=O)=O)CCCC2c1c[nH]cn1 (stereo not drawn) [Example 1, N-[5-(1H-imidazol-4-yl)-2-methoxy-5,6,7,8-tetrahydro-1-naphthalenyl]methanesulfonamide, hydrochloride] | 0.5 | 1.7 | 0.482 | > 1000 | 955 | 5.5 | – | – | – | – | – | – | – | – |
| Cc1nc(C2CCCc3c2ccc(O)c3NS(C)(=O)=O)c[nH]1 (stereo not drawn) [Example 3, N-[2-hydroxy-5-(2-methyl-1H-imidazol-4-yl)-5,6,7,8-tetrahydro-1-naphthalenyl]methanesulfonamide, hydrochloride] | – | – | – | 1.95 | – | – | 0.991 | 50.4 | 8.29 | 12.9 | 28.2 | – | – | – |
| Cn1cncc1C1CCCc2c1ccc(O)c2NS(C)(=O)=O (stereo not drawn) [Example 4, N-[2-hydroxy-5-(1-methyl-1H-imidazol-5-yl)-5,6,7,8-tetrahydro-1-naphthalenyl]methanesulfonamide, hydrochloride] | 24.6 | 31.6 | 31.6 | 309 | > 1000 | 95.5 | – | – | – | – | – | – | – | – |
| CS(=O)(=O)Nc1cccc2c1CCCC2c1c[nH]cn1.Cl (stereo not drawn) [Example 8, N-[5-(1H-imidazol-4-yl)-5,6,7,8-tetrahydro-1-naphthalenyl]methanesulfonamide, hydrochloride] | – | – | – | – | – | – | – | – | – | – | – | 102 | corresponding increases in the urethral pressure | 0.0255 |

From US6503935B1, “Imidazoles and related compounds as α1A agonists” (Abbott Laboratories, priority 1998, dated 2003)
